From publication doi:10.1101/2024.08.19.608619, “Discovery of potent SARS-CoV-2 nsp3 macrodomain inhibitors uncovers lack of translation to cellular antiviral response” (bioRxiv, 2024)
≈ marks a conversion by molar mass, not a printed value. Where “and” joins values, the source holds several entries; their conditions need not be identical. Equal values may be shown once.

Experiments:
[1] = Permeability Papp (AB) MDR1/MDCKII; conditions: for papp_a_to_b_mean / perc_recovery_a_to_b_mean / papp_b_to_a_mean / efflux_ratio / perc_recovery_b_to_a_mean: In vitro MDR1-MDCKII permeability; for papp_a_to_b_mean: A to B; for perc_recovery_a_to_b_mean / perc_recovery_a_to_b_inhibitor_mean: recovery A to B; for perc_recovery_b_to_a_mean / perc_recovery_b_to_a_inhibitor_mean: recovery B to A
[2] = In vitro kinetic solubility; conditions: In vitro kinetic solubility, ph 7.4
in vitro = conditions: human, hela-ace2 cells, 50.0
[3] = Hepatic microsomal stability, MLM; type: in vitro ADME
LogD = conditions: pH 7.4; In vitro LogD
[4] = test system: SARS-CoV-2, isolate USA-WA1/2020; assay: microbe, parasite or virus in culture; type: cell-based; conditions: HeLa-ACE2 SARS-CoV-2 antiviral effect without P-gp inhibitor; for perc_max_measured: maximum measured response of dose series; for perc_min_measured: minimum measured response of dose series; for EC50: read-out: ec50; for EC90: read-out: ec90
HeLa-ACE2 cells = conditions: HeLa-ACE2 cytotoxicity; for perc_max_measured: highest measured response of the dose series; for perc_min_measured: lowest measured response of the dose series
[5] = Hepatic microsomal stability, HLM; type: in vitro ADME, human; conditions: In vitro human liver microsomal stability; for perc_remaining_no_cofactor: no cofactor
[6] = In vitro mouse liver microsomal stability
[7] = MDR1-MDCKII, with inhibitor Cyclosporin A
[8] = MDR1-MDCKII, with inhibitor Verapamil
[9] = In vitro mouse liver microsomal stability, no cofactor

Row | SMILES | papp_a_to_b_mean ([1]; mean) | solubility_mean [2] | CC50 at 24 h (in vitro) | clint [3, 6] | perc_remaining [3, 6] | t_half [3, 6] | logd (LogD) | perc_max_measured [4] | perc_min_measured [4] | EC50 [4] | EC90 [4] | CC50 (HeLa-ACE2 cells) | cc10 (HeLa-ACE2 cells) | perc_max_measured (HeLa-ACE2 cells) | perc_min_measured (HeLa-ACE2 cells) | clint [5] | perc_remaining [5] | t_half [5] | perc_remaining_no_cofactor [5] | perc_remaining_no_cofactor [3, 9] | also measured
1 | CC(C)[C@@H](Nc1ncnc2[nH]c(-c3cnn(CC(=O)N(C)C)c3)cc12)c1ccc2c(c1)S(=O)(=O)CCC2 (racemic) [ASAP-0008668] | 0.67 ×10⁻⁶ cm/s | 38 µM (≈ 19.8 µg/mL) | > 20 µM | 68.0 µL/min/mg | 31.0% | 24.6 min | 2.1 | 98.615% | 84.991% | > 20 µM | > 20 µM | > 20 µM | > 20.0 µM | 99.837% | 68.704% | 106.0 µL/min/mg | 18.0% | 15.8 min | 92.0% | – | perc_recovery_a_to_b_mean ([1]; mean): 85.0%; perc_remaining_no_cofactor ([3]; In vitro mouse liver microsomal stability; no cofactor): 92.0%
2 | CCNC(=O)c1cc2c(N[C@@H](c3ccc4c(c3)S(=O)(=O)CCO4)C(C)C)ncnc2[nH]1 (racemic) [ASAP-0012317] | – | 328 µM (≈ 145 µg/mL) | > 20 µM | 26.0 µL/min/mg | 66.0% | 65.5 min | 2.9 | 111.753% | 79.377% | > 20 µM | > 20 µM | > 20 µM | > 20.0 µM | 105.961% | 74.573% | 64.0 µL/min/mg | 33.0% | 26.2 min | 95.0% | 99.0% | papp_b_to_a_mean ([1]; B to A, no inhibitor): 1.5 ×10⁻⁶ cm/s and 1.4 ×10⁻⁶ cm/s; efflux_ratio ([1]; no inhibitor): 20.3 and 15.3; perc_recovery_a_to_b_mean ([1]; no inhibitor): 71.9% and 74.3% and 65.2%; perc_recovery_b_to_a_mean ([1]; no inhibitor): 68.3% and 88.2%; papp_b_to_a_inhibitor_mean ([1]; MDR1-MDCKII, B to A, with inhibitor Verapamil): 1.5 ×10⁻⁶ cm/s; perc_recovery_a_to_b_inhibitor_mean [1, 7]: 82.7%; perc_recovery_a_to_b_inhibitor_mean [1, 8]: 92.9%; perc_recovery_b_to_a_inhibitor_mean [1, 7]: 89.0%; perc_recovery_b_to_a_inhibitor_mean [1, 8]: 90.3%
3 | CC(C)[C@@H](Nc1ncnc2[nH]ccc12)c1ccc2c(c1)S(=O)(=O)CCC2 (single isomer, unassigned) [ASAP-0008676] | – | 386 µM (≈ 143 µg/mL) | > 20 µM | 55.0 µL/min/mg | 41.0% | 30.4 min | 2.5 | 117.108% | 66.698% | > 20 µM | > 20 µM | > 20 µM | > 20.0 µM | 101.14% | 87.391% | 21.0 µL/min/mg | 69.0% | 78.6 min | 99.0% | 117.0% | papp_b_to_a_mean ([1]; B to A, no inhibitor): 7.1 ×10⁻⁶ cm/s and 4.9 ×10⁻⁶ cm/s; efflux_ratio ([1]; no inhibitor): 47.7 and 54.4; perc_recovery_a_to_b_mean ([1]; no inhibitor): 75.4% and 74.2% and 91.3%; perc_recovery_b_to_a_mean ([1]; no inhibitor): 80.0% and 74.5%; perc_recovery_a_to_b_inhibitor_mean [1, 7]: 72.2%; perc_recovery_a_to_b_inhibitor_mean [1, 8]: 82.4%; perc_recovery_b_to_a_inhibitor_mean [1, 7]: 63.3%; perc_recovery_b_to_a_inhibitor_mean [1, 8]: 89.1%
4 | CC(C)[C@H](Nc1ncnc2[nH]c(-c3cnn(C)c3C#N)cc12)c1ccc2c(c1)S(=O)(=O)CCC2 (single isomer, unassigned) [ASAP-0011144] | 4.33 ×10⁻⁶ cm/s | 22 µM (≈ 10.5 µg/mL) | > 20 µM | 311.0 µL/min/mg | 1.0% | 5.4 min | 3.3 | 129.006% | 5.734% | 6.21 µM | 7.19 µM | > 20 µM | > 20.0 µM | 100.779% | 87.504% | 935.0 µL/min/mg | 0.0% | 1.8 min | 101.0% | 90.0% | papp_a_to_b_mean ([1]; no inhibitor): 0.109 ×10⁻⁶ cm/s and 0.101 ×10⁻⁶ cm/s; papp_b_to_a_mean ([1]; B to A, no inhibitor): 6.0 ×10⁻⁶ cm/s and 7.2 ×10⁻⁶ cm/s; efflux_ratio ([1]; no inhibitor): 54.9 and 71.8; perc_recovery_a_to_b_mean ([1]; mean): 71.4%; perc_recovery_a_to_b_mean ([1]; no inhibitor): 95.4% and 83.3%; perc_recovery_b_to_a_mean ([1]; no inhibitor): 82.4% and 102.0%; perc_recovery_a_to_b_inhibitor_mean [1, 7]: 78.3%; perc_recovery_a_to_b_inhibitor_mean [1, 8]: 84.6%; perc_recovery_b_to_a_inhibitor_mean [1, 7]: 76.3%; perc_recovery_b_to_a_inhibitor_mean [1, 8]: 95.9%
5 | CNCc1cc(-c2cc3c(N[C@H](c4ccc5c(c4)S(=O)(=O)CCC5)C(C)C)ncnc3[nH]2)co1 (single isomer, unassigned) [ASAP-0011169] | 0.483 ×10⁻⁶ cm/s | 358 µM (≈ 172 µg/mL) | > 20 µM | 40.0 µL/min/mg | 51.0% | 41.8 min | 2.1 | 94.818% | 27.713% | 11.1 µM | > 20 µM | > 20 µM | > 20.0 µM | 96.832% | 86.562% | 67.0 µL/min/mg | 33.0% | 25.1 min | 98.0% | 96.0% | perc_recovery_a_to_b_mean ([1]; mean): 63.8%
